Reference: paper PMC10178127, “Immunomodulatory Effects of the Pea Defensin Psd1 in the Caco-2/Immune Cells Co-Culture upon Candida albicans Infection” (International Journal of Molecular Sciences, 2023)

System: monocyte-derived dendritic cells (moDCs)
Assay: Multiplex xMAP cytokine production, direct stimulation of moDCs
Format: cell-based, human
Details: 24 h
Protocol: Primary peripheral blood mononuclear cells (PBMCs) collected from healthy donors were purchased from American Type Culture Collection (ATCC PCS-800-011). Primary CD14^+ blood monocytes were isolated from PBMCs by adherence according to standard technique. Monocyte-derived mature dendritic cells (moDCs) were obtained from CD14^+ blood monocytes according to the previously reported protocol. Briefly, blood monocytes were incubated in a complete RPMI-1640 medium (Capricorn Scientific, Ebsdorfergrund, Germany), containing 10% fetal bovine serum (FBS, Capricorn Scientific, Ebsdorfergrund, Germany), 1× antibiotic-antimycotic solution (Invitrogen, Waltham, MA, USA), 800 U/mL rhGM-CSF (Sci-Store, Moscow, Russia) and 500 U/mL rhIL-4 (Sci-Store) for 3 days in CellXpert C170i CO2-incubator (Eppendorf, Hamburg, Germany). Fresh complete RPMI-1640 medium with rhGM-CSF and rhIL-4 was added to the culture on day 3. On day 5, fresh complete RPMI-1640 containing 100 U/mL rhTNF-α (Sigma-Aldrich, St. Louis, MO, USA) as well as 800 U/mL rhGM-CSF and 500 U/mL rhIL-4 was added and the culture was incubated for another 4 days until full maturation.
Monocytes and moDCs were seeded into the wells of 48- and 24-well plates in the complete RPMI-1640 medium supplemented with 10% human AB serum (HABS, Capricorn Scientific) without antibiotics 24 h prior to the experiment, and kept in a humidified CO2-incubator (5% CO2, 37 °C). After 24 h, the medium in the wells of the 48-well plate was replaced by fresh complete RPMI-1640 medium with 10% HABS, supplemented with 2 µM of Psd1 for the sample wells or fresh medium alone for the control wells. Medium in the wells of the 24-well plate was replaced by fresh complete RPMI-1640 medium with 10% human serum without antibiotics. Then, Millicell inserts with Caco-2 monolayers with TEER > 400 Ωcm^2 were placed into the wells of the 24-well plate, containing monocytes or moDCs. Wells with Millicell inserts with Caco-2 monolayers without immune cells were used as control wells. Medium in apical chambers of Millicell inserts was replaced by fresh complete RPMI-1640 with 10% human serum medium containing Psd1 at the final concentration of 2 µM or Candida albicans at the concentration of 5 × 10^4 cells/mL or yeast cells together with the pea defensin at the same concentration. Fresh complete RPMI-1640 medium only with 10% human serum and without antibiotics was used in control wells. Plates were kept in CO2-incubator (5% CO2, 37 °C) for another 24 h. Culture supernatants from the wells of the 48-well plate and basolateral chambers of the 24-well plate were collected and stored at −70 °C degrees less than one month prior to the analytes assessment.
The following 48 analytes were measured at a protein level by multiplex xMAP technology using the MILLIPLEX Human Cytokine/Chemokine/Growth Factor Panel A kit (HCYTA-60K-PX48, Merck, Darmstadt, Germany): sCD40L, EGF, Eotaxin-1/CCL11, FGF-2/FGF-basic, Flt-3 ligand, Fractalkine/CX3CL1, G-CSF, GM-CSF, GROα/CXCL1, IFNα2, IFNγ, IL-1α, IL-1β, IL-1RA, IL-2, IL-3, IL-4, IL-5, IL-6, IL-7, IL-8/CXCL8, IL-9, IL-10, IL-12(p40), IL-12(p70), IL-13, IL-15, IL-17A/CTLA8, IL-17E/IL-25, IL-17F, IL-18, IL-22, IL-27, IP-10/CXCL10, MCP-1/CCL2, MCP-3/CCL7, M-CSF, MDC/CCL22, MIG/CXCL9, MIP-1α/CCL3, MIP-1β/CCL4, PDGF-AA, PDGF-AB/BB, RANTES/CCL5, TGFα, TNFα, TNFβ, and VEGF-A. Multiplex-based assay read-out was performed using the MAGPIX system (Merck) with the xPONENT 4.2 software (Merck) in accordance with the manufacturer’s instruction with overnight incubation of the samples with primary antibodies. A final analysis was carried out with the MILLIPLEX Analyst v5.1 software (Merck). Measurements were performed twice for each sample. Release of the analytes in control and experimental samples was compared with an unpaired two-sample t-test using GraphPad Prism v.8.0.1 (GraphPad Software, Inc., San Diego, CA, USA). The p values ≤ 0.05 were considered significant.

Psd1: pea defensin from Pisum sativum (UNIPROT P81929), recombinant peptide overexpressed in Escherichia coli (KTCEHLADTYRGVCFTNASCDDHCKNKAHLISGTCHNWKCFCTQNC; UniProt P81929 1-46, looked up)
EGF level (moDCs+Psd1, 2 µM, supernatant): 6.22 pg/mL | Eotaxin level (moDCs+Psd1, 2 µM, supernatant): <3.52↓ pg/ml | FGF-2 level (moDCs+Psd1, 2 µM, supernatant): 55.36 pg/mL | FLT-3L level (moDCs+Psd1, 2 µM, supernatant): 1.05 pg/mL | Fractalkine level (moDCs+Psd1, 2 µM, supernatant): <17.82↓ pg/ml | G-CSF level (moDCs+Psd1, 2 µM, supernatant): 49.49 pg/mL | GM-CSF level (moDCs+Psd1, 2 µM, supernatant): 11.89 pg/mL | GROa level (moDCs+Psd1, 2 µM, supernatant): <0.61↓ pg/ml | IFNa2 level (moDCs+Psd1, 2 µM, supernatant): 12.78 pg/mL | IFNg level (moDCs+Psd1, 2 µM, supernatant): 7.25 pg/mL | IL-1RA level (moDCs+Psd1, 2 µM, supernatant): 53.29 pg/mL | IL-1a level (moDCs+Psd1, 2 µM, supernatant): 12.23 pg/mL | IL-1b level (moDCs+Psd1, 2 µM, supernatant): <2.26↓ pg/ml | IL-2 level (moDCs+Psd1, 2 µM, supernatant): 1.82 pg/mL | IL-3 level (moDCs+Psd1, 2 µM, supernatant): 1.61 pg/mL | IL-4 level (moDCs+Psd1, 2 µM, supernatant): <1.14↓ pg/ml | IL-5 level (moDCs+Psd1, 2 µM, supernatant): 4.15 pg/mL | IL-6 level (moDCs+Psd1, 2 µM, supernatant): 14.4 pg/mL | IL-7 level (moDCs+Psd1, 2 µM, supernatant): <0.38↓ pg/ml | IL-8 level (moDCs+Psd1, 2 µM, supernatant): 345.9 pg/mL | IL-9 level (moDCs+Psd1, 2 µM, supernatant): 3.67 pg/mL | IL-10 level (moDCs+Psd1, 2 µM, supernatant): 33.74 pg/mL | IL-12 (p40) level (moDCs+Psd1, 2 µM, supernatant): 98.57 pg/mL | IL-12 (p70) level (moDCs+Psd1, 2 µM, supernatant): <1.68↓ pg/ml | IL-13 level (moDCs+Psd1, 2 µM, supernatant): 19.51 pg/mL | IL-15 level (moDCs+Psd1, 2 µM, supernatant): 12.91 pg/mL | IL-17A level (moDCs+Psd1, 2 µM, supernatant): 3.9 pg/mL | IL-17E/IL-25 level (moDCs+Psd1, 2 µM, supernatant): <18.85↓ pg/ml | IL-17F level (moDCs+Psd1, 2 µM, supernatant): <19.03↓ pg/ml | IL-18 level (moDCs+Psd1, 2 µM, supernatant): 2.59 pg/mL | IL-22 level (moDCs+Psd1, 2 µM, supernatant): 12.46 pg/mL | IL-27 level (moDCs+Psd1, 2 µM, supernatant): 135.68 pg/mL | IP-10 level (moDCs+Psd1, 2 µM, supernatant): 8892 pg/mL | M-GSF level (moDCs+Psd1, 2 µM, supernatant): 218.78 pg/mL | MCP-1 level (moDCs+Psd1, 2 µM, supernatant): 1760 pg/mL | MCP-3 level (moDCs+Psd1, 2 µM, supernatant): 49.77 pg/mL | MDC level (moDCs+Psd1, 2 µM, supernatant): 3016 pg/mL | MIG level (moDCs+Psd1, 2 µM, supernatant): 30050 pg/mL | MIP-1a level (moDCs+Psd1, 2 µM, supernatant): 185.33 pg/mL | MIP-1b level (moDCs+Psd1, 2 µM, supernatant): 554.97 pg/mL | PDGF-AA level (moDCs+Psd1, 2 µM, supernatant): 89.5 pg/mL | PDGF-AB/BB level (moDCs+Psd1, 2 µM, supernatant): 139.81 pg/mL | RANTES level (moDCs+Psd1, 2 µM, supernatant): 65.35 pg/mL | TGF-a level (moDCs+Psd1, 2 µM, supernatant): 113.74 pg/mL | TNFa level (moDCs+Psd1, 2 µM, supernatant): 55.68 pg/mL | TNFb level (moDCs+Psd1, 2 µM, supernatant): 2.29 pg/mL | VEGFa level (moDCs+Psd1, 2 µM, supernatant): <1.40↓ pg/ml | sCD40L level (moDCs+Psd1, 2 µM, supernatant): 133.96 pg/mL | increase in IL-12, IL-15, IL-27 and MCP-1 (moDCs, 2 μM): statistically significant | production of TNFα, IL-6, IL-8, IP-10, MCP-3, and G-CSF (moDCs, 2 μM): increased
